Where “and” joins values, the source holds several entries; their conditions need not be identical. Equal entries are not always repeated.

The record followed here is US20050148553A1, “Use of tigecycline, alone, or in combination with rifampin to treat osteomyelitis and/or septic arthritis” (priority 2003, published 2005).

Data set [1] concerns M. abcessus. Description: Susceptibility/MIC of patient isolate, compassionate use study. It is filed as cell-based, Mycobacterium abscessus.
Data set [2] relates to methicillin-resistant S. aureus.
Experimental: Preparation of the Infective Media: S. aureus was incubated overnight in Mueller Hinton Broth (Difco Laboratories, Detroit, Mich.) medium spiked with 40 μg/ml oxacillin, at 37° C. The bacterial concentration of the culture was adjusted to 10^7 CFU's/ml.
Rabbit Infection Procedure: New Zealand white rabbits (Ray Nicholl's Rabbitry, Lumberton, Tex.), eight to 12 weeks old and weighing 2.0 to 3.5 kg, were utilized for the study. After anesthesia was given, an 18-gauge needle was inserted percutaneously through the lateral aspect of the left tibial metaphysis into the intramedullary cavity. Next, 0.15 ml of 5% sodium morrhuate (American Regent Laboratories, Inc., Shirley, N.Y.), 0.1 ml of S. aureus (10^7 CFU/ml), and 0.2 ml of sterile, normal saline, 0.9%, were injected sequentially.
Group 1 (control group): infected but left untreated for the duration of the study. Group 2: rabbits were treated for 4 weeks with subcutaneous vancomycin at 30 mg/kg twice daily. Group 3: rabbits were treated for 4 weeks with subcutaneous vancomycin at 30 mg/kg twice daily plus oral rifampin at 40 mg/kg twice daily in 0.5% methylcellulose. Group 4: rabbits were treated for 4 weeks with subcutaneous tigecycline at 14 mg/kg twice daily. Group 5: rabbits were treated for 4 weeks with subcutaneous tigecycline at the same dose as in the rabbits in Group 4, plus oral rifampin at 40 mg/kg twice daily in 0.5% methylcellulose. […] Group 6: rabbits were treated for 1 week with subcutaneous tigecycline at the same dose as in Group 4, but were sacrificed 3 hours after administration of the last dose. At that time, blood and infected bone samples were collected and tigecycline concentration was determined. Groups 1 to 5 were left untreated for 2 weeks after treatment phase of the experiment and sacrificed at 8 weeks after infection.
Radiographs of bilateral tibias were taken at initiation of therapy (2 weeks after infection), at the end of antibiotic therapy (6 weeks after infection), and at sacrifice (8 weeks after infection). Radiographs were scored according to a visual scale (Table 1) by three investigators, each blinded to the treatment group, and the grades were averaged.
After sacrifice, gross cultures were performed for right and left tibias. Quantitative counts of S. aureus, in CFUs per gram, of left tibial bone and marrow were determined for all study groups.
Culture Preparation: The bone marrow and the intramedullary canal of bilateral tibias were swabbed with sterile cotton tip applicators for gross cultures analysis of left tibias and quality assurance checks of right tibias. The inoculated applicator was streaked onto blood plates and then placed into 5 ml of sterile TSB. The plates and tubes were then incubated at 37° C. for 24 hours and growth and/or turbidity was recorded.
The bone marrow was placed into a sterile, 50 ml centrifuge tube and weighed. The bone fragments were broken into 0.5 cm^2 chips, placed into a sterile, 50 ml centrifuge tube, and the final product weighed. Normal sterile saline, 0.9%, was added in a 3 to 1 ratio (3 ml saline/gram of bone or marrow) and the suspensions were vortexed for 2 minutes. Six ten-fold dilutions of each suspension were prepared with sterile, normal saline, 0.9%. Twenty-microliter samples of each dilution, including the initial suspension, was plated, in triplicate, onto blood agar plates and incubated at 37° C. for 24 hours. CFUs were counted at the greatest dilution for each tibia sample.
Data set [3] in a line: Mass balance study, 5 mg/kg intravenous dose. In kind it is in vivo, Sprague-Dawley rats. Conditions: male rats.
Where [4] appears, read: average grade, t=14 versus t=56 days.
Setting [5] is: individual rabbits, left tibia, 8 weeks after infection.

For the compound `CN(C)c1cc(NC(=O)CNC(C)(C)C)c(O)c2c1C[C@H]1C[C@H]3[C@H](N(C)C)C(O)=C(C(N)=O)C(=O)[C@@]3(O)C(O)=C1C2=O` [Tigecycline], the “susceptibility of the organism” value in data set [1] (M. abscessus patient isolate) is given as “susceptible”. The MIC in data set [1] (Mycobacteroides abscessus, M. abcessus from a human patient, read-out: minimum inhibitory concentration) was found to be 0.25 µg/mL. In addition, in data set [2] (setting [4]), the “radiographic improvement (grade)” value is given as 0.9+/−0.1 and the “radiographic improvement (percent)” value came to 40.9%. For the same compound, the “rabbits/samples positive for MRSA in bone” value in data set [2] (bone cultures at sacrifice) is 1 out of 10 and one rabbit of 10. In data set [2] (compared with 0.33 (5/15) in control group), the “proportion of positive cultures in marrow” value is on record as 0. Besides, the “bacterial outcome in bone and marrow, in words” value in data set [2] (end of study, MRSA infected rabbits) was “lower colony forming units in bone and marrow”. Besides, in data set [2] (setting [5]), the “Counts (CFU/gm) Bone” value is 178.6 CFU/gm and 0 CFU/gm (9×); the “Counts (CFU/gm) Marrow” value is recorded as 0 CFU/gm. Further, in data set [2] (marrow cultures at sacrifice), the “rabbits infected in bone marrow” value is reported as “no infection”. The “average radiographic grade versus control group” value in data set [2] (t=56 days, p<0.05) is “significantly lower”. Further, the “average bacterial concentration of the group” value in data set [2] (tibia bone) is 20 CFU/gram bone.

Turning to `CN(C)c1cc(NC(=O)CNC(C)(C)C)c(O)c2c1C[C@H]1C[C@H]3[C@H](N(C)C)C(O)=C(C(N)=O)C(=O)[C@@]3(O)C(O)=C1C2=O` [[^14C]-Tigecycline], the recovery of radioactivity in data set [3] is on record as 89.4±2.50%.
